What was measured:
hMAO-A = biological target: T1, hMAO-A (Homo sapiens, UniProt P21397); assay: in vitro fluorometric hMAO-A inhibition assay (Amplex Red); type: biochemical; conditions: read-out: MAO A Inhibition %
T1 sequence (P21397 1-527): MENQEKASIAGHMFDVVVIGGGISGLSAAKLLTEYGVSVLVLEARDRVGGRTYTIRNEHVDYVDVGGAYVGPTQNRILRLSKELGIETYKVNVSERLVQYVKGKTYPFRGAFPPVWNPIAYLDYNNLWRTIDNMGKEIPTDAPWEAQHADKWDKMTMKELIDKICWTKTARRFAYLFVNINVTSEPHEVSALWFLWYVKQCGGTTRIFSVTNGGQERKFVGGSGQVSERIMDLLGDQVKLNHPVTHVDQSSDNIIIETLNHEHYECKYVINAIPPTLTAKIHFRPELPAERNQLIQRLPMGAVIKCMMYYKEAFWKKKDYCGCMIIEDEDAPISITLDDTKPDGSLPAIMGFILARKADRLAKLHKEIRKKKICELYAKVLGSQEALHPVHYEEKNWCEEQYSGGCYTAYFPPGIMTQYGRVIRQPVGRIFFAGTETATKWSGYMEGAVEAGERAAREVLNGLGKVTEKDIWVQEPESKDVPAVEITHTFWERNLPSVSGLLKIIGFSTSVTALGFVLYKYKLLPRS
Procedure: The in vitro fluorometric enzymatic assay, allowing to sensitively detect monoamine oxidase activity, was applied to investigate hMAO-A and hMAO-B inhibitory potential of compounds 3a–3j. The method was performed in two steps, as previously described. […]
(§1) An enzyme inhibition assay was performed according to our recent study. The inhibitor (20 μL/well) and hMAO-A (100 μL/well) or hMAO-B solution (100 μL/well) was added to the fine black-bottom 96-well microtiter plate and the mixture was incubated at 37 °C for 30 min. After the incubation period, the reaction was started by adding a working solution (100 μL/well) ([…] Amplex Red reagent, 1 U/mL horseradish peroxidase and 1 mM p-tyramine) and all pipetting processes were performed using a Biotek Precision XS robotic system (BioTek Instruments, Winooski, VT, USA).
The production of H2O2 and, subsequently, of resorufin was quantified at 37 °C in a BioTek-Synergy H1 microplate reader based on the fluorescence generated (excitation, 535 nm, emission, 587 nm) over a 15 min period, in which the fluorescence increased linearly. Control experiments were carried out simultaneously by replacing the inhibitor solution with 2% DMSO (20 μL). In order to check the probable inhibitory effect of inhibitors on horseradish peroxidase, a parallel reading was achieved by replacing enzyme solutions with 3% H2O2 solution (20 mM 100 μL/well). In addition, the probable capacity of the inhibitors to modify the fluorescence generated in the reaction mixture due to non-enzymatic inhibition was determined by mixing inhibitor and working solutions.
(§2) The specific fluorescence emission (used to obtain the final results) was calculated after subtraction of the background activity, which was determined from vials containing all components except the hMAO isoforms, which were replaced by phosphate buffer (100 μL/well). Blank, control and all concentrations of inhibitors were analyzed in quadruplicate and inhibition percent was calculated by using following equation: % Inhibition=(FCt2−FCt1)−(FIt2−FIt1)/FCt2−FCt1×100 where FCt2 is the fluorescence of a control well measured at t2 time; FCt1 is the fluorescence of a control well measured at t1 time; FIt2 is the fluorescence of an inhibitor well measured at t2 time; and FIt1 is the fluorescence of an inhibitor well measured at t1 time.
(§3) The IC50 values were calculated from a dose-response curve obtained by plotting the percentage inhibition versus the log concentration with the use of GraphPad PRISM software (version 5.0, GraphPad Software Inc., La Jolla, CA, USA).

[1] = cytotoxicity test (MTT) on NIH/3T3 cells; type: cell-based, mouse; conditions: mouse, NIH/3T3 mouse embryonic fibroblast cells (ATCC CRL-1658); MTT assay, 1000 µM to 0.316 µM; read-out: IC50 (cytotoxic activity against NIH/3T3 cell line)
Procedure: The healthy NIH/3T3 mouse embryonic fibroblast cell line (ATCC CRL1658), proposed by ISO (10993-5, 2009) for preliminary cytotoxicity screening of drug candidates, was used to evaluate the cytotoxicity of compound 3e. The IC50 value of the compound 3e is represented in Table 3.
NIH/3T3 mouse embryonic fibroblast cell line (ATCC® CRL-1658™, London, UK) was used in the cytotoxicity test and, initially, NIH/3T3 cells were incubated in Dulbecco’s Modified Eagle’s Medium (DMEM). NIH/3T3 cells were added to 96-well culture plates (10,000 cells/well). Synthesized compounds and reference agents were added to the 96-well culture plates at various concentrations ranging from 1000 µM to 0.316 µM. MTT assay was performed as previously described. Dose-response curves were plotted against compound concentrations applied to determine IC50 values.

hMAO-B = biological target: T2, hMAO-B (Homo sapiens, UniProt P27338); assay: in vitro fluorometric hMAO-B inhibition assay (Amplex Red); type: biochemical
T2 sequence (P27338 1-520): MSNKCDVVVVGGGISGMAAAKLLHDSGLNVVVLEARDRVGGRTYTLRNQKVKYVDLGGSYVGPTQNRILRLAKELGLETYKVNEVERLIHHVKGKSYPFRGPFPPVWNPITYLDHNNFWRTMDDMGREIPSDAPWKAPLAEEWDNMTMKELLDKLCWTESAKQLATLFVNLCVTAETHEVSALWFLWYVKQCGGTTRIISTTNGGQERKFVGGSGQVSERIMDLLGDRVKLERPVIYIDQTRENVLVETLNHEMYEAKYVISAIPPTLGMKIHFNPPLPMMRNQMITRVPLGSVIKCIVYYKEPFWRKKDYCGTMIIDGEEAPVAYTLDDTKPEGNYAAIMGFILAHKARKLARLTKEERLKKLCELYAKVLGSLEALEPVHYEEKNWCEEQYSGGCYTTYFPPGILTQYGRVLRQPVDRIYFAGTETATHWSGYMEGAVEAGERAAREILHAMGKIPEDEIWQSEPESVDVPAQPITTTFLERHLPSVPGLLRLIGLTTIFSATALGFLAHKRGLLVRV
Procedure: The method was performed in two steps, as previously described.
as §1, with “The inhibitor (20 μL/well) and hMAO-A (100 μL/well) or hMAO-B solution (100 μL/well) was added to the fine black-bottom 96-well microtiter plate and the mixture was incubated at 37 °C for 30 min.” left out
Control experiments were carried out simultaneously by replacing the inhibitor solution with 2% DMSO (20 μL). In order to check the probable inhibitory effect of inhibitors on horseradish peroxidase, a parallel reading was achieved by replacing enzyme solutions with 3% H2O2 solution (20 mM 100 μL/well). In addition, the probable capacity of the inhibitors to modify the fluorescence generated in the reaction mixture due to non-enzymatic inhibition was determined by mixing inhibitor and working solutions.
as §2, §3

inhibition at 1000 µM (hMAO-A; 10^−3 M): 22.1%
inhibition at 100 µM (hMAO-A; 10^−4 M): 18.6%
melting point: 177.2 to 178.6 °C
inhibition at 1000 µM (hMAO-B; 10^−3 M, read-out: MAO B Inhibition %): 87.3%
inhibition against hMAO-B (first screening step) (hMAO-B; 10^−3 and 10^−4 M): more than 50%
inhibition at 100 µM (hMAO-B; 10^−4 M, read-out: MAO B Inhibition %): 83.5%
IC50 (hMAO-B; concentrations of 10^−5–10^−9 M, mean ± SD, read-out: MAO B IC50): 0.06 ± 0.002 µM
SMILES: COc1ccc2sc(SCC(=O)NN=Cc3ccc([N+](=O)[O-])s3)nc2c1 [Compound 3e, 2-((5-Methoxybenzothiazol-2-yl)thio)-N′-((5-nitrothiophen-2-yl)methylene)acetohydrazide]
IC50 [1]: 19 ± 1.03 µM

— paper PMC6149824, “Design and Synthesis of New Benzothiazole Compounds as Selective hMAO-B Inhibitors” (Molecules : A Journal of Synthetic Chemistry and Natural …, 2017)
